In brackets after ≈: the same amount, converted by molar mass.
Columns and labels:
Assay in all cases: MIC in broth
Format in all cases: cell-based
[1] = tested on: Staphylococcus aureus 1517
[2] = tested on: Klebsiella aerogenes A [T767]
[3] = tested on: Proteus mirabilis 977 [13]
[4] = tested on: Enterobacter cloacae N1 [T753]
Proteus morganii 1580 = details: Morganella morganii
[5] = tested on: Salmonella typhimurium CT10; details: Salmonella enterica
Streptococcus faecalia I = tested on: Streptococcus faecalia I
[6] = tested on: Staphylococcus aureus Russell [MB9]
Serratia marcescens US20 = tested on: Serratia marcescens US20
Bacillus subtilis A = tested on: Bacillus subtilis A
[7] = tested on: Staphylococcus aureus Oxford
[8] = tested on: Streptococcus pneumoniae CN33
Proteus rettgeri WM16 = details: Providencia rettgeri
Shigella sonnei MB11967 = tested on: Shigella sonnei MB11967
Proteus vulgaris W091 = tested on: Proteus vulgaris W091
[9] = tested on: Streptococcus pyogenes CN10
[10] = tested on: Escherichia coli JT39 [E96]
[11] = tested on: Pseudomonas aeruginosa A [11]
Citrobacter freundii E8 = tested on: Citrobacter freundii E8
Escherichia coli ESS = tested on: Escherichia coli ESS
[12] = tested on: Escherichia coli 0111 [E8]

## CC(=O)NCCSC1=C(C(=O)O)N2C(=O)[C@H]([C@@H](C)n3cc(C(=O)O)nn3)[C@H]2C1 [Example 4, Disodium (SR,6S) - 3 - (2 - acetamidoethylthio) - 6 - [(R) - 1 - (4 - carboxytriazol - 1 - yl)ethyl] - 7 - oxo - 1 - azabicyclo [3.2.0.]hept - 2 - ene - 2 - carboxylate.]
[1]
  MIC: > 100 µg/mL
[2]
  MIC: 3.1 µg/mL
[3]
  MIC: 12.5 µg/mL
[4]
  MIC: 3.1 µg/mL
Proteus morganii 1580
  MIC: 25 µg/mL
[5]
  MIC: 6.2 µg/mL
Streptococcus faecalia I
  MIC: 100 µg/mL
[6]
  MIC: 6.2 µg/mL
Serratia marcescens US20
  MIC: 6.2 µg/mL
Bacillus subtilis A
  MIC: 3.1 µg/mL
[7]
  MIC: 6.2 µg/mL
[8]
  MIC: 1.6 µg/mL
Proteus rettgeri WM16
  MIC: 6.2 µg/mL
Shigella sonnei MB11967
  MIC: 12.5 µg/mL
Proteus vulgaris W091
  MIC: 6.2 µg/mL
[9]
  MIC: 1.6 µg/mL
[10]
  MIC: 3.1 µg/mL
[11]
  MIC: 100 µg/mL
Citrobacter freundii E8
  MIC: 1.6 µg/mL
Escherichia coli ESS
  MIC: 1.6 µg/mL

## CC(=O)N/C=C/SC1=C(C(=O)O)N2C(=O)[C@H]([C@@H](C)n3cc(C(=O)O)nn3)[C@H]2C1 [Example 6, Disodium (5R,6S)-3-[(E)-2-acetamidoethenylthio]-6-[(R)-1-(4-carboxytriazol-1-yl)ethyl]-7-oxo-1-azabicyclo [3.2.0.] hept-2-ene-2-carboxylate]
[1]
  MIC: 25 µg/mL
[2]
  MIC: 1.6 µg/mL
[3]
  MIC: 12.5 µg/mL
[4]
  MIC: 25 µg/mL
Proteus morganii 1580
  MIC: 12.5 µg/mL
[5]
  MIC: 1.6 µg/mL
Streptococcus faecalia I
  MIC: 100 µg/mL
[6]
  MIC: 6.2 µg/mL
Serratia marcescens US20
  MIC: 6.2 µg/mL
Bacillus subtilis A
  MIC: 6.2 µg/mL
[7]
  MIC: 6.2 µg/mL
Proteus rettgeri WM16
  MIC: 3.1 µg/mL
Shigella sonnei MB11967
  MIC: 3.1 µg/mL
Proteus vulgaris W091
  MIC: 12.5 µg/mL
[12]
  MIC: 12.5 µg/mL
[10]
  MIC: 3.1 µg/mL
[11]
  MIC: 50 µg/mL
Citrobacter freundii E8
  MIC: 25 µg/mL
Escherichia coli ESS
  MIC: 1.6 µg/mL

## CC(=O)N/C=C/SC1=C(C(=O)O)N2C(=O)[C@H]([C@@H](C)n3cc(C(=O)OCCN)nn3)[C@H]2C1 [Example 7, (5R,6S)-3-[(E)-2-acetamidoethenylthio]-6-[(R)-1-(4-(2-aminoethyloxycarbonyl)triazol-1-yl]ethyl]-7-oxo-1-azabicyclo[3.2.0.]hept-2-ene-2-carboxylic acid]
[1]
  MIC: 12.5 µg/mL (≈ 27.7 µM)
[2]
  MIC: 3.1 µg/mL (≈ 6.88 µM)
[3]
  MIC: 25 µg/mL (≈ 55.5 µM)
[4]
  MIC: 1.6 µg/mL (≈ 3.55 µM)
[5]
  MIC: 1.6 µg/mL (≈ 3.55 µM)
Streptococcus faecalia I
  MIC: 50 µg/mL (≈ 111 µM)
[6]
  MIC: 0.4 µg/mL (≈ 0.888 µM)
Serratia marcescens US20
  MIC: 3.1 µg/mL (≈ 6.88 µM)
Bacillus subtilis A
  MIC: 0.8 µg/mL (≈ 1.78 µM)
[7]
  MIC: 0.4 µg/mL (≈ 0.888 µM)
Proteus rettgeri WM16
  MIC: 6.2 µg/mL (≈ 13.8 µM)
Shigella sonnei MB11967
  MIC: 1.6 µg/mL (≈ 3.55 µM)
Proteus vulgaris W091
  MIC: 25 µg/mL (≈ 55.5 µM)
[12]
  MIC: 1.6 µg/mL (≈ 3.55 µM)
[9]
  MIC: 0.4 µg/mL (≈ 0.888 µM)
[10]
  MIC: 0.8 µg/mL (≈ 1.78 µM)
[11]
  MIC: 100 µg/mL (≈ 222 µM)
Citrobacter freundii E8
  MIC: 0.8 µg/mL (≈ 1.78 µM)

— patent EP0059554A2, “Beta-lactam antibiotics, a process for their preparation and their use in pharmaceutical compositions” (BEECHAM GROUP PLC, priority 1981, dated 1982)
